Assay results as given in patent publication US7285618B1, “Polypeptides having neutrophil stimulating activity” (Japan Tobacco Inc., priority 2000, dated 2007).
Read-outs that look alike come from different tables or passages of the source. Where a SMILES comes first, the peptide text is derived from it. Where no end group is shown, it is not given here. The star is where a group is joined. For = O=C*

Key:
[1] = tested on: differentiated HL60 cells; test: Intracellular Ca2+ concentration (fura-2), differentiated HL60 cells; assay type: cell-based, human; conditions: differentiated HL60 cells (+)
Method: (§1) The differentiated HL60 cells or undifferentiated HL60 cells were washed twice with a Hepes-Na solution (140 mM NaCl, 4 mM KCl, 1 mM NaH2PO4, 1 mM MgCl2, 1.25 mM CaCl2, 5 mM Hepes, 11 mM glucose, 0.2% BSA, pH 7.4). Then, Ca^2+ sensitive fluorescence reagent, fura-2/AM, was added to the cell suspension (4 ml: final concentration, 4 μM). The reaction mixture was then shaken gently at room temperature for 60 minutes, shielded from light in order to incorporate fura-2 into the HL60 cells. Subsequently, the cells were washed twice with a Hepes-Na solution and a cell suspension was prepared at a final cell density of 1.0×10^6 cells/ml. One milliliter of the cell suspension was put into reaction cuvettes and stimulated with various samples under stirring at 30° C. Ratios of fluorescence intensity at 500 nm (F) for an excitation wavelength at 340 nm to that at 380 nm were measured with a fluorimeter (CAF-100, Japan Spectroscopic Co., Ltd.) and [Ca^2+]i was calculated following the formula: [Ca^2+]i(nM)=K×{(F−Fmin)/(Fmax−F)}×A/B, wherein
(§2) Fmax: a ratio of fluorescence intensity at 500 nm for an excitation wavelength at 340 nm to that at 380 nm after all cells were solubilized with 0.1% Triton X-100;
(§3) Fmin: a ratio of fluorescence intensity at 500-nm for an excitation wavelength at 340 nm to that at 380 nm after the whole calcium was chelated with 4 mM EGTA;
(§4) A: fluorescence intensity at 500-nm for an excitation wavelength at 380 nm, when all the calcium was chelated with EGTA;
(§5) B: fluorescence intensity at 500-nm for an excitation wavelength at 380 nm, when all cells were solubilized with Triton X-100;
(§6) K: 224 (nM) (the dissociation constant of fura-2).

[2] = tested on: undifferentiated HL60 cells; test: Intracellular Ca2+ concentration (fura-2), undifferentiated HL60 cells; assay type: cell-based, human
Method: as §1, §2, §3, §4, §5, §6

[3] = tested on: differentiated HL60 cells; assay type: cell-based, human; conditions: for activity of promoting β-HA secretion / activity for β-HA secretion compared with COSP-1 and fCyt b (1-15): differentiated HL60 cells; for activity of promoting β-HA secretion: Example 12; for activity for β-HA secretion compared with COSP-1 and fCyt b (1-15): human homologues; for β-HA secretion from differentiated HL60 cells (%/total): total = β-HA released with 0.05% Triton X-100
Method: a. Cultivation of HL60 Cells and Induction to the Differentiated Neutrophil-Like Cells For cultivation, heat-inactivated FCS (final concentration; 10%), streptomycin (final concentration; 100 mg/l), penicillin G (final concentration of 10^5 units/l) and RPMI-1640 culture solution containing 10 mM Hepes (pH 7.4) were used. Cells were cultivated at a cell density of 2×10^5-1.5×10^6 cells/ml in a plastic flask (80 cm^2, 260 ml, Nunc) at 37° C. under stationary conditions with a 5% of CO2 concentration and a 100% of humidity. […] c. […] Measuring β-HA Enzyme Activity The amount of β-HA secreted into the reaction supernatant was determined by measuring the absorbance at 415 nm of p-nitrophenol that was generated by an enzymatic reaction involving p-nitrophenyl N-acetyl-β-D-glucosaminide as a substrate. To be specific, 90 μl of the reaction supernatant was transferred to a 96-well Immuno plate (Nunc) and 60 μl of a substrate solution (10 mM p-nitrophenyl N-acetyl-β-D-glucosaminide/40 mM citrate, 70 mM Na2HPO4, pH 4.5) was added to initiate an enzymatic reaction. Following a 1-hr reaction at 37° C., 100 μl of a reaction quencher (400 mM glycine, pH 10.7) was added to stop the reaction and the absorbance at 415 nm was measured. As a control, cells were treated with Triton X-100 at a final concentration of 0.05% and the amount of β-HA in the supernatant was measured. As another control, the amount of β-HA secreted from cells upon stimulation with fMLP at a final concentration of 10 μM was measured.

[4] = tested on: differentiated HL60 cells
Method: (§10) The differentiated HL60 cells and human leukocyte cells were washed three times with ice-cooled 0.1% BSA containing Hepes buffered Hank's solution (HBHS; 10 mM Hepes, 136.9 mM NaCl, 5.4 mM KCl, 1.2 mM CaCl2, 0.44 mM KH2PO4, 0.49 mM MgCl2, 0.41 mM MgSO4, 0.34 mM Na2HPO4, 5.5 mM glucose, 4.2 mM NaHCO3, pH 7.4). A cell suspension was prepared for each cell type at 5.5×10^6 cells/ml. Cytochalasin B and DNase I were then added to each cell suspension at a final concentration of 5 μg/ml. Ninety μl of each cell suspension was then transferred to an ice-cooled tube (5.0×10^5 cells/tube) and incubated at 37° C. for 10 minute. To each tube, either one of the fractions of polypeptide (or extract) in solution (10 μl) was added and incubated at 37° C. for 10 minutes to stimulate the cells. Immediately after the treatment, 200 μl of ice-cooled reaction quenching buffer (25 mM Tris, 123 mM NaCl, 2.7 mM KCl, pH 7.4) was added to the cell suspensions to stop the stimulation. Thereafter, the tubes were spun down at 4° C. for 60 seconds to precipitate the cell pellets and the β-HA activity and the lactate dehydrogenase (LDH) activity in the supernatant were measured.
(§11) The amount of LDH secreted into the reaction mixture was determined by measuring the absorbance (340 nm) of NADH generated by reduction of that NAD involves dehydrogenation of lactate. Reaction was initiated by adding a 400 μl of a substrate-buffer solution (125 mM 2-amino-2-methyl-1-propanol, 125 mM lithium lactate, 6.25 mM NAD, pH 9.5) to a 100 μl of the reaction supernatant. Following a 1-hr incubation at 37° C., the mixture was quenched in ice water to stop the reaction and the absorbance at 340 nm was measured.
(§12) The LDH enzyme activity secreted in the reaction mixture was expressed as the percentage of the total enzyme activity in cells (%/total) which was the enzyme activity of LDH released upon disruption of the cells with 0.05% Triton X-100.

[5] = tested on: differentiated HL60 cells; test: LDH leakage from HL60 cells; conditions: differentiated HL60 cells, Example 4
Method: as §10, §11, §12

[6] = tested on: differentiated HL60 cells; test: Migration promoting activity (Chemotaxis Cells), differentiated HL60 cells; assay type: cell-based, human; conditions: for activity for migration at the concentrations where β-HA secretion was observed / concentrations of migration activity relative to the concentration for β-HA secretion: Example 12
Method: (§7) The migration promoting activity of each of the polypeptides of interest was measured using Chemotaxis Cells (Kurabo) as follows: The differentiated HL60 cells or undifferentiated HL60 cells were washed three times with ice-cooled HBHS and a cell suspension was prepared at a cell density of 4×10^6 cells/ml. The cell suspension was incubated at 37° C. for 10 minutes; thereafter, 500 μl of the cell suspension was transferred to Chemotaxis Cells (2×10^6 cells/Cell), which were put on a micro-well plate filled with pre-heated (37° C.) HBHS containing 1 ml of polypeptide and incubation was performed at 37° C. for 1 hour. Then, the Chemotaxis Cells were removed from the plate and the number of cells that had migrated in each well was counted.
(§8) Migration promoting activity was expressed by a chemotaxis index, or the number of cells that migrated upon stimulation was divided by the number of cells migrated without stimuli.
(§9) The activity of the human homologues of COSP-1 and fCyt b (1-15) for promoting β-HA secretion and migration promoting activities were measured following the methods described in Examples 4 and 5, respectively. The activity for β-HA secretion was expressed by the percentage for the maximum amount of secretion upon stimulation with 10 μM of fMLP, whereas the activity for migration was expressed by a chemotaxis index, i.e., the ratio of the number of stimulated migrating cells to that of unstimulated migrating cells.

[7] = tested on: undifferentiated HL60 cells; test: Migration promoting activity (Chemotaxis Cells), undifferentiated HL60 cells; assay type: cell-based, human
Method: as §7, §8
The activity of the human homologues of COSP-1 and fCyt b (1-15) for promoting β-HA secretion and migration promoting activities were measured following the methods described in Examples 4 and 5, respectively. […]

[8] = tested on: undifferentiated HL60 cells; test: β-HA secretion from undifferentiated HL60 cells (Example 12); assay type: cell-based, human; conditions: data not shown
Method: as §9

Row | Compound | activity of promoting β-HA secretion [3] | activity for β-HA secretion compared with COSP-1 and fCyt b (1-15) [3] | β-HA secretion from differentiated HL60 cells (%/total) [3] | migration promoting (attracting) activity [6] | activity for migration at the concentrations where β-HA secretion was observed [6] | concentrations of migration activity relative to the concentration for β-HA secretion [6] | migration promoting activity [7] | activity of promoting β-HA secretion [8] | also measured
1 | Nc1ncnc2c1ncn2[C@@H]1O[C@H](COP(=O)(O)OP(=O)(O)OP(=O)(O)O)[C@@H](O)[C@H]1O [ATP] | – | – | – | – | – | – | – | – | intracellular Ca2+ concentration [1]: increased; intracellular Ca2+ concentration [2]: increased
2 | CC[C@H](C)[C@H](NC(=O)[C@H](CC(N)=O)NC(=O)[C@@H](NC(=O)[C@H](CCSC)NC=O)[C@@H](C)O)C(=O)N[C@@H](CCCNC(=N)N)C(=O)N[C@@H](CCCCN)C(=O)N[C@@H](CO)C(=O)N[C@@H](Cc1c[nH]cn1)C(=O)N1CCC[C@H]1C(=O)N[C@@H](CC(C)C)C(=O)N[C@@H](CCSC)C(=O)N[C@@H](CCCCN)C(=O)N[C@H](C(=O)N[C@H](C(=O)N[C@@H](CC(N)=O)C(=O)O)[C@@H](C)CC)[C@@H](C)CC [fCyt b (1-15), fMet-Thr-Asn-Ile-Arg-Lys-Ser-His-Pro-Leu-Met-Lys-Ile-Ile-Asn] (For-MTNIRKSHPLMKIIN-OH) | – | – | – | – | – | – | – | – | EC50 [3]: 38 ± 3.4 nM
3 | CC[C@H](C)[C@H](NC(=O)[C@H](CC(N)=O)NC(=O)[C@@H](NC(=O)[C@H](CCSC)NC=O)[C@@H](C)O)C(=O)N[C@@H](CCCNC(=N)N)C(=O)N[C@@H](CCCCN)C(=O)N[C@@H](CO)C(=O)N[C@@H](Cc1cnc[nH]1)C(=O)N1CCC[C@H]1C(=O)N[C@@H](CC(C)C)C(=O)N[C@@H](CCSC)C(=O)N[C@@H](CCCCN)C(=O)N[C@H](C(=O)N[C@H](C(=O)N[C@@H](CC(N)=O)C(=O)O)[C@@H](C)CC)[C@@H](C)CC [fCyt b (1-15), fMet-Thr-Asn-Ile-Arg-Lys-Ser-His-Pro-Leu-Met-Lys-Ile-Ile-Asn] (For-MTNIRKSHPLMKIIN-OH) | – | – | – | – | – | – | – | – | LDH leakage out of the cells [4]: no LDH was found to leak out
4 | MTNIRKSHPLMKIIN [Cyt b (1-15)] | – | – | – | – | – | – | – | – | LDH leakage out of the cells [5]: no LDH was found to leak out
5 | VTFLLPAGWILSHLETYRRPE [Human COSP-1] | showed the activity | comparable | 53.5 %/total | showed the activity | desensitized | observed at concentrations lower | not observed | not observed | –
6 | fMet-Thr-Pro-Met-Arg-Lys-Ile-Asn-Pro-Leu-Met-Lys-Leu-Ile-Asn (For-MTPMRKINPLMKLIN; listed as Homo sapiens) [Human fCyt b (1-15)] | showed the activity | comparable | 65.9 %/total | showed the activity | desensitized | observed at concentrations lower | not observed | not observed | –
